One data set deals with T1, GPR40 (Homo sapiens, UniProt O14842).
T1 construct: host or cells: CHO-K1 (Cell bank of the Chinese Academy of Sciences, GNHa 7), retrovirus infection
Description: Agonist activity on CHO-K1/GPR40 cell (Fluo-4 calcium fluorescence). To be noted: CHO-K1 cell line expressing GPR40, calcium ion fluorescence. The class given is cell-based. An excerpt:
Agonist activity of compounds of the present disclosure on CHO-K1/GPR40 cell.
The following method was used to determine the agonist activity of compounds of the present disclosure on GPR40. The experiment process is described as follows:
CHO-K1/GPR40 cell (CHO-K1 cell line expressing GPR40, which was constructed using retrovirus infection method, CHO-K1/GPR40 cell for short, wherein CHO-K1 cell was purchased from Cell bank of the Chinese Academy of Sciences, catalogue number GNHa 7; GPR40 cDNA was purchased from Guangzhou FulenGen Co., Ltd, catalogue number EX-UO270-MO2) was inoculated in a 96-well plate with an inoculation density of 25000 cells/well. The cell plate was incubated at 37° C. and 5% CO2 for 24 hours. The cell culture fluid was discarded during the experiment, the cells were washed with buffer solution (1×HBSS+20 mM HEPES pH 7.4) once, 100 μL of Fluo-4 calcium ion dye was quickly added into each well, incubated at 37° C. in the dark for 30 minutes, and then at room temperature for another 30 minutes. During the determination, the baseline value of each well was read at first, and then different concentrations of drug were added to the wells (50 μL/well), and the fluorescence values were then read. The fluorescence excitation wavelength was 494 nm and the emission wavelength was 516 nm. The increase of fluorescence intensity was proportional to calcium ion level in the cells. Cell response rate of each cell/(The maximum fluorescence value−The minimum fluorescence value)/The minimum fluorescence value. EC50 values of the compounds were calculated

Data set [1] can be described thus: Pharmacokinetics assay in rats after intragastric administration. The data set is classed as in vivo. To be noted: for Vd/F / AUC / CL/F / half-life / MRT / Cmax: both sexes, SD, rat, plasma, po, 5 mg/kg; for Vd/F: read-out: Apparent Distribution Volume Vz/F; for AUC: read-out: Area under Curve AUC; for CL/F: read-out: Clearance CL/F (converted); for half-life: read-out: Half-Life t½ (converted); for MRT: read-out: Mean Residence Time MRT; for Cmax: read-out: Plasma Conc. Cmax. The protocol:
The compounds of the present invention were administered intragastrically to determine the drug concentration in plasma at different time points. The pharmacokinetic behavior of the compounds of the present invention was studied and evaluated in rats.
Compounds of Example 1, Example 2, Example 13 and Example 30
16 healthy adult SD rats were divided into 4 groups with 4 in each group, half male and half female. Rats were purchased from SINO-BRITSH SIPPR/BK LAB. ANIMAL LTD., CO, License number: SCXK (Shanghai) 2008-0016
The appropriate amount of test compounds were weighed and added to 0.5% sodium carboxymethyl cellulose to prepare a 0.5 mg/mL suspension using microwave.
After an overnight fast, the rats were administered intragastrically a dose of 5.0 mg/kg, at an administration volume of 10 mL/kg. Blood samples were taken before administration and after administration at different time points over 24.0 hours, using heparin as an anticoagulant. The separated plasma samples were stored at −20° C. The rats were fed 2 hours after administration.
Blood samples (0.1 mL) were taken before administration and at 1.0, 2.0, 3.0, 4.0, 6.0, 8.0, 11.0, 24.0 and 48.0 hours after administration, which were stored in heparinized tubes and centrifuged for 5 minutes at 3,500 rpm to separate blood plasma. The plasma samples were stored at −20° C. The rats were fed 2 hours after administration.
The content of the different test compounds in rat plasma samples after the intragastric administration was determined by LC/MS/MS method. The linearity of the method is 1.00˜2000 ng/ml. The blood sample was analyzed after protein precipitation was accomplished by the addition of methanol.

Data set [2] relates to ICR mice fed on a high fat diet. Description: Oral glucose tolerance test (OGTT) in glucose load mice fed on a high fat diet. The data set is classed as in vivo. To be noted: blood glucose AUC, high fat diet ICR male mice, single oral dose 40 mg/kg. As to the method:
ICR mice fed on a high fat diet were used as test animals. The effect of oral administration of a single dose of the compounds of the present disclosure on oral glucose tolerance test (OGTT) of glucose load mice was studied.
Compounds of Example 1, Example 2, Example 13, Example 16, Example 18, Example 19 and Example 26
Healthy ICR male mice were purchased from SINO-BRITSH SIPPR/BK LAB. ANIMAL LTD., CO, License number: SCXK (Shanghai) 2008-0016
The test compounds were added to aqueous 0.5% CMC-Na solution to prepare the corresponding concentration suspension using microwave.
After an overnight fast for 16 hours, male mice fed on a high fat diet were weighed, and the basic blood glucose was determined. The mice were randomly divided into a Blank group and the group of each test compound of the present disclosure according to the level of blood glucose.
The dosage of administration was 20 mg/kg or 40 mg/kg, and the Blank group was administered aqueous 0.5 CMC-Na solution.
20% Glucose solution was administered 15 minutes after intragastrical administration (each mouse was administered 0.4 mL)
The compounds were administered according to the aforesaid dosage to determine the blood glucose value (−15 minutes).
At 15 minutes after administration, 20% glucose solution was administrated at a dose of 2 g/kg and the blood glucose values at 0, 15, 30, 45, 60 and 120 minutes in each mouse were determined by Roche Accu-Chek blood glucose monitoring meter.
Using Excel statistical software: the average value was calculated with avg; SD value was calculated with STDEV; and P value of difference among groups was calculated with TTEST. • AUC calculation formula: AUC=(t15min+t0min)×0.25/2+(t30min+t15min)×0.25/2+(t45min+t30min)×0.25/2+(t60min+t45min)×0.25/2+(t120min+t60min)×1/2 • Wherein t0min, t15min, t30min, t45min, t60min, t120min were blood glucose values determined at different time points.

The structures appear in SMILES notation.

T1 sequence (O14842 whole entry): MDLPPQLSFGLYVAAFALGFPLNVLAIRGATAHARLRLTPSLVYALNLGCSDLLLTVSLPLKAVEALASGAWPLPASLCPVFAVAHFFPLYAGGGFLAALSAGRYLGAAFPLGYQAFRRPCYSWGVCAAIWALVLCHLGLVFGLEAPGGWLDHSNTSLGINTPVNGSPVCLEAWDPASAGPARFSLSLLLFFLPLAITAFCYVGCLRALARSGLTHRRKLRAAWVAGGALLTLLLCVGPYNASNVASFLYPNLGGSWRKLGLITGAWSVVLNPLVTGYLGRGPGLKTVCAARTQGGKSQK

As a reminder, the EC50 is the concentration giving half of the maximal effect. As for `Cc1cc(O[C@@H]2COC[C@H]2O)cc(C)c1-c1cccc(COc2ccc3c(c2)OC[C@H]3CC(=O)O)c1` (mixture of isomers) [Example 13, 2-((S)-6-((4′-(((3R,4R)/(3S,4S)-4-Hydroxytetrahydrofuran-3-yl)oxy)-2′,6′-dimethylbiphenyl-3-yl)methoxy)-2,3-dihydrobenzofuran-3-yl)acetic acid], the EC50 at GPR40 was determined as 0.016 µM. In data set [1] (SD rats, 5 mg/Kg), the “Area under Curve AUC” value came out at 39357 ± 10659 ng·h/mL, the “Clearance CL/F” value is 2.17 ± 0.5 mL/min/kg, the “Half-Life t½” value was found to be 10.0 ± 0.3 h and the “Mean Residence Time MRT” value was determined as 12.5 ± 1.5 h. Moreover, the “Plasma Conc. Cmax” value in data set [1] (SD rats, 5 mg/Kg) is on record as 3153 ± 482 ng/mL. In data set [2] (40 mg/kg), the “AUC decrease rate %” value was 39.71%.

Broadly, the AUC is the area under the concentration-time curve, a measure of exposure. The half-life is the time needed for the level to fall by half in the phase considered. What is called MRT is a mean duration of stay, worked out from the concentration-time curve. Usually Cmax stands for the maximum level reached in the sampled fluid or tissue. Regarding `Cc1cc(O[C@H]2CCOC2)cc(C)c1-c1cccc(COc2ccc3c(c2)OC[C@H]3CC(=O)O)c1` [Example 1, 2-((S)-6-((2′,6′-Dimethyl-4′-(((S)-tetrahydrofuran-3-yl)oxy)biphenyl-3-yl)methoxy)-2,3-dihydrobenzofuran-3-yl)acetic acid], the EC50 on GPR40 was 0.031 µM. In data set [1], the Vd/F was determined as 3.39 ± 1.24 L/kg, the AUC stood at 21600 ± 8620 ng·h/mL, the CL/F is 4 mL/min/kg and the half-life was 10.1 ± 3.3 h. Also, in data set [1], the MRT amounted to 14.5 ± 4.7 h and the Cmax amounted to 1690 ± 698 ng/mL. In addition, in data set [2], the “AUC decrease rate %” value is 36.08%.

On to `Cc1cc(O[C@@H]2CCOC2)cc(C)c1-c1cccc(COc2ccc3c(c2)OC[C@H]3CC(=O)O)c1` [Example 2, 2-((S)-6-((2′,6′-Dimethyl-4′-(((R)-tetrahydrofuran-3-yl)oxy)biphenyl-3-yl)methoxy)-2,3-dihydrobenzofuran-3-yl)acetic acid], for which the EC50 on GPR40 was 0.035 µM. In data set [1], the Vd/F is 2.79 ± 0.79 L/kg, the AUC came to 32900 ± 11900 ng·h/mL, the CL/F was 2.5 mL/min/kg and the half-life is 13.4 ± 3.8 h. In data set [1], the MRT was determined as 18.9 ± 6 h and the Cmax came to 2010 ± 511 ng/mL. Moreover, in data set [2], the “AUC decrease rate %” value is given as 29.49%.

With `Cc1cc(O[C@@H]2COC[C@H]2O)cc(C)c1-c1cccc(COc2ccc3c(c2)OC[C@H]3CC(=O)O)c1` [Example 30, 2-((S)-6-((4′-(((3R,4R)-4-hydroxytetrahydrofuran-3-yl)oxy)-2′,6′-dimethylbiphenyl-3-yl)methoxy)-2,3-dihydrobenzofuran-3-yl)acetic acid], on GPR40, the EC50 amounted to 0.034 µM. Further, in data set [1], the Vd/F was 1.88 ± 0.66 L/kg, the AUC was 38200 ± 15000 ng·h/mL, the CL/F was 2.33 mL/min/kg and the half-life was 9.35 ± 0.55 h. Also, in data set [1], the MRT came out at 13.3 ± 2 h and the Cmax was determined as 2730 ± 478 ng/mL. Further, the “AUC decrease rate %” value in data set [2] (40 mg/kg) was determined as 29.59%.

Source of the values: patent publication US9139548B2, “Polycyclic derivatives, preparation process and pharmaceutical use thereof” (Jiangsu Hengrui Medicine Co., Ltd., priority 2012, dated 2015).
